Numbers after ± are expanded uncertainties.
Legend:
[1] = activity coefficient (dimensionless); of the first substance listed, at infinite dilution; xn = mol fraction of the nth substance listed; conditions: 101.33 kPa, Liquid, Chromatography, x1 = 0
[2] = 101.33 kPa, Liquid, Vibrating tube method

| Compound | activity coefficient ([1]; 313.15 K) | activity coefficient ([1]; 323.15 K) | activity coefficient ([1]; 333.15 K) | activity coefficient ([1]; 343.15 K) | activity coefficient ([1]; 353.15 K) | mass density ([2]; 313.15 K) | mass density ([2]; 323.15 K) | mass density ([2]; 333.15 K) | mass density ([2]; 343.15 K) | mass density ([2]; 353.15 K) |
| --- | --- | --- | --- | --- | --- | --- | --- | --- | --- | --- |
| CCc1ccccc1 [ethylbenzene] + CCCCCCn1cc[n+](C)c1C.F[B-](F)(F)F | 3.81 ± 0.4 | 3.84 ± 0.4 | 3.88 ± 0.41 | 3.93 ± 0.41 | 3.95 ± 0.42 |  |  |  |  |  |
| Cc1ccccc1 [toluene] + CCCCCCn1cc[n+](C)c1C.F[B-](F)(F)F | 2.21 ± 0.23 | 2.26 ± 0.24 | 2.31 ± 0.24 | 2.35 ± 0.25 | 2.4 ± 0.25 |  |  |  |  |  |
| CC(C)O [propan-2-ol] + CCCCCCn1cc[n+](C)c1C.F[B-](F)(F)F | 1.75 ± 0.18 | 1.67 ± 0.17 | 1.58 ± 0.16 | 1.46 ± 0.15 | 1.39 ± 0.14 |  |  |  |  |  |
| CCCCCC [hexane] + CCCCCCn1cc[n+](C)c1C.F[B-](F)(F)F | 31 ± 3.3 | 29.5 ± 3.1 | 27.9 ± 2.9 | 26.3 ± 2.8 | 25 ± 2.6 |  |  |  |  |  |
| CCCCC [pentane] + CCCCCCn1cc[n+](C)c1C.F[B-](F)(F)F | 28.9 ± 3 | 25.6 ± 2.7 | 22.9 ± 2.4 | 20.6 ± 2.2 | 18.8 ± 2 |  |  |  |  |  |
| ClC(Cl)(Cl)Cl [tetrachloromethane] + CCCCCCn1cc[n+](C)c1C.F[B-](F)(F)F | 3.5 ± 0.37 | 3.61 ± 0.38 | 3.7 ± 0.4 | 3.72 ± 0.39 | 3.86 ± 0.41 |  |  |  |  |  |
| CC(C)CO [2-methyl-1-propanol] + CCCCCCn1cc[n+](C)c1C.F[B-](F)(F)F | 2.28 ± 0.24 | 2.15 ± 0.23 | 2.01 ± 0.21 | 1.9 ± 0.2 | 1.85 ± 0.19 |  |  |  |  |  |
| C1COCCO1 [1,4-dioxane] + CCCCCCn1cc[n+](C)c1C.F[B-](F)(F)F | 1.08 ± 0.11 | 1.09 ± 0.11 | 1.1 ± 0.11 | 1.12 ± 0.11 | 1.13 ± 0.12 |  |  |  |  |  |
| CC1CCCCC1 [methylcyclohexane] + CCCCCCn1cc[n+](C)c1C.F[B-](F)(F)F | 25.4 ± 2.7 | 25.4 ± 2.7 | 24.9 ± 2.6 | 24.5 ± 2.6 | 23.9 ± 2.5 |  |  |  |  |  |
| C1CCOC1 [tetrahydrofuran] + CCCCCCn1cc[n+](C)c1C.F[B-](F)(F)F | 1.6 ± 0.17 | 1.62 ± 0.17 | 1.63 ± 0.17 | 1.65 ± 0.17 | 1.58 ± 0.16 |  |  |  |  |  |
| CCCCCCCC [octane] + CCCCCCn1cc[n+](C)c1C.F[B-](F)(F)F | 65.1 ± 6.8 | 64.1 ± 6.8 | 62.1 ± 6.5 | 61.2 ± 6.4 | 60.4 ± 6.4 |  |  |  |  |  |
| Cc1cccc(C)c1 [1,3-dimethylbenzene] + CCCCCCn1cc[n+](C)c1C.F[B-](F)(F)F | 3.37 ± 0.35 | 3.46 ± 0.36 | 3.59 ± 0.38 | 3.67 ± 0.39 | 3.79 ± 0.4 |  |  |  |  |  |
| CC(C)CC(C)(C)C [2,2,4-trimethylpentane] + CCCCCCn1cc[n+](C)c1C.F[B-](F)(F)F | 59.2 ± 6.2 | 59 ± 6.2 | 58.2 ± 6.1 | 57.5 ± 6.1 | 57.2 ± 6 |  |  |  |  |  |
| Cc1ccc(C)cc1 [1,4-dimethylbenzene] + CCCCCCn1cc[n+](C)c1C.F[B-](F)(F)F | 2.84 ± 0.3 | 3.05 ± 0.32 | 3.29 ± 0.35 | 3.51 ± 0.37 | 3.76 ± 0.4 |  |  |  |  |  |
| C1=CCCCC1 [cyclohexene] + CCCCCCn1cc[n+](C)c1C.F[B-](F)(F)F | 9.89 ± 1 | 9.67 ± 1 | 9.51 ± 1 | 9.36 ± 0.98 | 9.08 ± 0.95 |  |  |  |  |  |
| CCCCCCCCC [nonane] + CCCCCCn1cc[n+](C)c1C.F[B-](F)(F)F | 89.5 ± 9.4 | 83.5 ± 8.8 | 77.8 ± 8.2 | 72.6 ± 7.7 | 67.4 ± 7.1 |  |  |  |  |  |

| Compound | activity coefficient ([1]; 313.15 K) | activity coefficient ([1]; 323.15 K) | activity coefficient ([1]; 333.15 K) | activity coefficient ([1]; 343.15 K) | activity coefficient ([1]; 353.15 K) | mass density ([2]; 313.15 K) | mass density ([2]; 323.15 K) | mass density ([2]; 333.15 K) | mass density ([2]; 343.15 K) | mass density ([2]; 353.15 K) |
| --- | --- | --- | --- | --- | --- | --- | --- | --- | --- | --- |
| ClCCl [dichloromethane] + CCCCCCn1cc[n+](C)c1C.F[B-](F)(F)F | 0.7 ± 0.07 | 0.74 ± 0.08 | 0.8 ± 0.08 | 0.87 ± 0.09 | 0.93 ± 0.09 |  |  |  |  |  |
| CCCCCCC [heptane] + CCCCCCn1cc[n+](C)c1C.F[B-](F)(F)F | 47.9 ± 5 | 45.4 ± 4.8 | 42.8 ± 4.5 | 40.2 ± 4.2 | 37.4 ± 3.9 |  |  |  |  |  |
| CC#N [acetonitrile] + CCCCCCn1cc[n+](C)c1C.F[B-](F)(F)F | 0.52 ± 0.06 | 0.54 ± 0.06 | 0.56 ± 0.06 | 0.57 ± 0.06 | 0.58 ± 0.06 |  |  |  |  |  |
| CCCCCCn1cc[n+](C)c1C.F[B-](F)(F)F [1-hexyl-2,3-dimethylimidazolium tetrafluoroborate] |  |  |  |  |  | 1129.8 ± 2.4 kg/m3 | 1123.3 ± 2.4 kg/m3 | 1116.8 ± 2.4 kg/m3 | 1110.3 ± 2.4 kg/m3 | 1103.87 ± 2.4 kg/m3 |
| CO [methanol] + CCCCCCn1cc[n+](C)c1C.F[B-](F)(F)F | 0.96 ± 0.1 | 0.91 ± 0.09 | 0.86 ± 0.09 | 0.82 ± 0.08 | 0.78 ± 0.08 |  |  |  |  |  |
| CCOC(C)=O [ethyl acetate] + CCCCCCn1cc[n+](C)c1C.F[B-](F)(F)F | 2.01 ± 0.21 | 2.12 ± 0.22 | 2.16 ± 0.23 | 2.21 ± 0.23 | 2.26 ± 0.24 |  |  |  |  |  |
| Cc1ccccc1C [1,2-dimethylbenzene] + CCCCCCn1cc[n+](C)c1C.F[B-](F)(F)F | 2.38 ± 0.25 | 2.57 ± 0.27 | 2.76 ± 0.29 | 2.97 ± 0.31 | 3.16 ± 0.33 |  |  |  |  |  |
| c1ccccc1 [benzene] + CCCCCCn1cc[n+](C)c1C.F[B-](F)(F)F | 1.54 ± 0.16 | 1.55 ± 0.16 | 1.57 ± 0.16 | 1.58 ± 0.16 | 1.59 ± 0.17 |  |  |  |  |  |
| CCCCCCCCCC [decane] + CCCCCCn1cc[n+](C)c1C.F[B-](F)(F)F | 125 ± 13 | 121 ± 13 | 112 ± 12 | 102 ± 11 | 92 ± 9.7 |  |  |  |  |  |
| C1CCCCC1 [cyclohexane] + CCCCCCn1cc[n+](C)c1C.F[B-](F)(F)F | 19.8 ± 2.1 | 19.6 ± 2.1 | 19.5 ± 2 | 19.1 ± 2 | 18.9 ± 2 |  |  |  |  |  |
| ClC(Cl)Cl [trichloromethane] + CCCCCCn1cc[n+](C)c1C.F[B-](F)(F)F | 0.68 ± 0.07 | 0.72 ± 0.08 | 0.77 ± 0.08 | 0.82 ± 0.08 | 0.87 ± 0.09 |  |  |  |  |  |
| CC(C)=O [acetone] + CCCCCCn1cc[n+](C)c1C.F[B-](F)(F)F | 0.84 ± 0.09 | 0.87 ± 0.09 | 0.9 ± 0.09 | 0.93 ± 0.09 | 0.96 ± 0.1 |  |  |  |  |  |
| CCCCO [butan-1-ol] + CCCCCCn1cc[n+](C)c1C.F[B-](F)(F)F | 2.77 ± 0.29 | 2.67 ± 0.28 | 2.5 ± 0.3 | 2.37 ± 0.25 | 2.27 ± 0.24 |  |  |  |  |  |
| CCC(C)O (stereo not given) [butan-2-ol] + CCCCCCn1cc[n+](C)c1C.F[B-](F)(F)F | 2.65 ± 0.28 | 2.56 ± 0.27 | 2.48 ± 0.26 | 2.38 ± 0.25 | 2.28 ± 0.24 |  |  |  |  |  |
| CCCO [propan-1-ol] + CCCCCCn1cc[n+](C)c1C.F[B-](F)(F)F | 1.74 ± 0.18 | 1.65 ± 0.17 | 1.53 ± 0.16 | 1.43 ± 0.15 | 1.33 ± 0.14 |  |  |  |  |  |
| CCO [ethanol] + CCCCCCn1cc[n+](C)c1C.F[B-](F)(F)F | 1.4 ± 0.14 | 1.31 ± 0.13 | 1.23 ± 0.13 | 1.16 ± 0.12 | 1.09 ± 0.11 |  |  |  |  |  |

— the NIST ThermoML archive (doi:10.1016/j.jct.2018.05.017)
